# From patent US12640239B2, “Functional biomarkers for statin therapy in age-related macular degeneration (AMD)” (APELIOTUS TECHNOLOGIES, INC., priority 2017, dated 2026)
# Columns and labels:
# AMD patients [1] = experiment: Dark adaptation testing, rod intercept (RI) time, AdaptDx Dark Adaptometer Extended Test protocol; assay type: in vivo, human; settings: for Improvement in RI time: Patient 2, atorvastatin 80 mg/day, July 2018 vs January 2015
# From the text: Dark adaptation is preferably measured using devices known in the art, for example as described in U.S. Pat. No. 7,494,222. […] Briefly, the methods of the prior art as described therein, while sitting in complete or near-complete darkness the subject is first exposed to a bright photobleaching light to photobleach one or more of the visual pigments. This is followed by exposure to a series of dim stimulus lights to track visual sensitivity recovery from the photobleach. The intensity of the stimulus lights is gradually […] (generally in a staircase fashion), and the subject indicates whether each stimulus light presentation is detectable (e.g., by pushing a response button) or not detectable (e.g., by failing to push the response button). The just-detectible stimulus light intensity and the time at which it is detected are periodically recorded to generate a dark adaptation threshold curve. Finally, the speed of dark adaption is characterized by a parameter extracted from the threshold curve such as the rod intercept time or the rod-cone break time.
# (§1) Table 2 provides detailed information regarding patients 1 to 7, including the baseline diagnosis (diagnosis made when starting statin therapy), ending diagnosis (the diagnosis made on the date of the last referenced evaluation), the results of evaluations performed on each patient, and whether the patient responded to statin therapy. The dark adaptation data in this Example is the rod intercept time (or RI time) reported in minutes. In this Example, the dark adaptation data was collected using the AdaptDx® Dark Adaptometer (MacuLogix, Middletown, PA) running its standard Extended Test protocol. […] Data is automatically analyzed by the AdaptDx Dark Adaptometer to provide an RI time based on recovery to a criterion sensitivity level of 5×10^−3 scotopic cd/m^2. […] The visual acuity data was collected using a standard Snellen or ETDRS eye chart with the results presented using the standard 20/20 vision scale. Drusen resolution was determined by evaluation of fundus and OCT imaging by qualified clinicians experienced in AMD evaluation. Fundus and OCT imaging data was collected using the Heidelberg Engineering Spectralis® SD-OCT (Heidelberg, Germany) or the Karl Zeiss Meditec Cirrus® HD-OCT (Jena, Germany), in both cases running standard protocols with automated data analysis performed by the instruments.
# AMD patients [2] = experiment: Visual acuity, standard Snellen or ETDRS eye chart; assay type: in vivo, human
# From the text: as §1
# AMD patients [3] = experiment: Fundus and OCT imaging: drusen resolution, retinal thickness and volume; assay type: in vivo, human; settings: for Average retinal thickness / Average total volume (retina) / Retinal thickness, maximum / Retinal thickness, minimum: Patient 2, atorvastatin 80 mg/day; for OCT retinal imaging finding: Patient 5, atorvastatin 80 then 20 mg/day, April 2018 vs January 2014
# From the text: The patient was asked to report any perceived changes in visual function during the course of the treatment. […] The self-reported improvement was confirmed at months 15 and 22 of treatment. […] The resolution of the drusen was confirmed by fundus photography and optical coherence tomography (OCT) imaging.
# as §1
# The baseline diagnosis and ending diagnosis are the result of clinical assessment by qualified clinicians experienced in evaluation of AMD patients. The clinical assessment was carried out utilizing standard ophthalmic testing, such as, but not limited to, slit-lamp biomicroscopy (including looking for evidence of drusen and pigmentary changes), fundus and OCT imaging (including looking for evidence of drusen and pigmentary changes and calculation of retinal volume and retinal thickness), and testing with a Snellen or ETDRS eye chart (including looking for visual acuity changes that might indicate a change in disease status). Dark adaptation results were not used in the clinical assessment of the baseline or ending diagnosis.
# AMD patients [4] = settings: high-dose atorvastatin; Vavvas et al., 2016; cited from earlier work
# [5] = Patient #4, atorvastatin 80 mg/day, OD, month 0 (May 2018), baseline
# [6] = Patient #4, atorvastatin 80 mg/day, OS, month 0 (May 2018), baseline
# [7] = Patient #6, atorvastatin 80 mg/day, OD, month 9 (August 2018)
structure (smiles),measurement,setting,value
CC(C)c1c(C(=O)Nc2ccccc2)c(-c2ccccc2)c(-c2ccc(F)cc2)n1CC[C@@H](O)C[C@@H](O)CC(=O)O [atorvastatin],Improvement in RI time,AMD patients [1]; OD,1.67 min
same,Improvement in RI time,AMD patients [1]; OS,2.60 min
same,Change in RI time,"AMD patients [1]; Patient 5, atorvastatin 80 then 20 mg/day, pravastatin 20 mg/day from April 2018, left eye, June 2018 vs October 2015",essentially unchanged
same,Increase in RI time,"AMD patients [1]; Patient 5, atorvastatin 80 then 20 mg/day, pravastatin 20 mg/day from April 2018, right eye, June 2018 vs October 2015",7.51 min
same,RI (rod intercept time),"AMD patients [1]; Patient #1, atorvastatin 20 to 80 mg/day, OD, month 24 (July 2015)",RI > 20 minutes
same,RI (rod intercept time),"AMD patients [1]; Patient #1, atorvastatin 20 to 80 mg/day, OD, month 60 (July 2018)",RI > 20 minutes
same,RI (rod intercept time),"AMD patients [1]; Patient #1, atorvastatin 20 to 80 mg/day, OS, month 24 (July 2015)",RI = 17.13 minutes
same,RI (rod intercept time),"AMD patients [1]; Patient #1, atorvastatin 20 to 80 mg/day, OS, month 60 (July 2018)",RI > 20 minutes
same,RI (rod intercept time),"AMD patients [1]; Patient #2, atorvastatin 80 mg/day, OD, month 24 (January 2015)",RI = 18.72 minutes
same,RI (rod intercept time),"AMD patients [1]; Patient #2, atorvastatin 80 mg/day, OD, month 66 (July 2018)",RI = 17.05 minutes
same,RI (rod intercept time),"AMD patients [1]; Patient #2, atorvastatin 80 mg/day, OS, month 24 (January 2015)",RI = 9.88 minutes
same,RI (rod intercept time),"AMD patients [1]; Patient #2, atorvastatin 80 mg/day, OS, month 66 (July 2018)",RI = 7.28 minutes
same,RI (rod intercept time),"AMD patients [1]; Patient #3, atorvastatin 80 mg/day, OD, month 8 (June 2017)",RI > 20 minutes
same,RI (rod intercept time),"AMD patients [1]; Patient #3, atorvastatin 80 mg/day, OD, month 20 (June 2018)",RI > 20 minutes
same,RI (rod intercept time),"AMD patients [1]; Patient #3, atorvastatin 80 mg/day, OS, month 8 (June 2017)",RI > 20 minutes
same,RI (rod intercept time),"AMD patients [1]; Patient #3, atorvastatin 80 mg/day, OS, month 20 (June 2018)",RI > 20 minutes
same,RI (rod intercept time),AMD patients [1]; [5],RI > 20 minutes
same,RI (rod intercept time),"AMD patients [1]; Patient #4, atorvastatin 80 mg/day, OD, month 4 (September 2018)",RI > 20 minutes
same,RI (rod intercept time),AMD patients [1]; [6],RI > 20 minutes
same,RI (rod intercept time),"AMD patients [1]; Patient #4, atorvastatin 80 mg/day, OS, month 4 (September 2018)",RI > 20 minutes
same,RI (rod intercept time),"AMD patients [1]; Patient #5, atorvastatin 80 mg/day (suspended January 2015-February 2016), then 20 mg/day, pravastatin 20 mg/day from April 2018, OD, month 52 (June 2018)",RI = 17.19 minutes
same,RI (rod intercept time),"AMD patients [1]; Patient #5, atorvastatin 80 mg/day (suspended January 2015-February 2016), then 20 mg/day, pravastatin 20 mg/day from April 2018, OS, month 52 (June 2018)",RI = 10.81 minutes
same,RI (rod intercept time),"AMD patients [1]; Patient #5, atorvastatin 80 mg/day January 2014 to January 2015, therapy suspended until February 2016, OD, month 21 (October 2015)",RI = 9.68 minutes
same,RI (rod intercept time),"AMD patients [1]; Patient #5, atorvastatin 80 mg/day January 2014 to January 2015, therapy suspended until February 2016, OS, month 21 (October 2015)",RI = 11.04 minutes
same,RI (rod intercept time),"AMD patients [1]; Patient #6, atorvastatin 80 mg/day from November 2017, OD, month −3 (August 2017), before initiation",RI = 5.75 minutes
same,RI (rod intercept time),AMD patients [1]; [7],RI = 2.55 minutes
same,RI (rod intercept time),"AMD patients [1]; Patient #7, atorvastatin 10 to 20 mg/day, OD, month 0 (April 2016), baseline",RI > 20 minutes
same,RI (rod intercept time),"AMD patients [1]; Patient #7, atorvastatin 10 to 20 mg/day, OD, month 27 (July 2018)",RI > 20 minutes
same,RI (rod intercept time),"AMD patients [1]; Patient #7, atorvastatin 10 to 20 mg/day, OS, month 0 (April 2016), baseline",RI > 20 minutes
same,RI (rod intercept time),"AMD patients [1]; Patient #7, atorvastatin 10 to 20 mg/day, OS, month 27 (July 2018)",RI > 20 minutes
same,VA (visual acuity),"AMD patients [2]; Patient #1, atorvastatin 20 to 80 mg/day, OD, month 0 (July 2013), baseline",VA 20/25
same,VA (visual acuity),"AMD patients [2]; Patient #1, atorvastatin 20 to 80 mg/day, OD, month 59 (June 2018)",VA 20/25
same,VA (visual acuity),"AMD patients [2]; Patient #1, atorvastatin 20 to 80 mg/day, OS, month 0 (July 2013), baseline",VA 20/32
same,VA (visual acuity),"AMD patients [2]; Patient #1, atorvastatin 20 to 80 mg/day, OS, month 59 (June 2018)",VA 20/25
same,VA (visual acuity),"AMD patients [2]; Patient #2, atorvastatin 80 mg/day, OD, month 64 (May 2018)",VA 20/30
same,VA (visual acuity),"AMD patients [2]; Patient #2, atorvastatin 80 mg/day, OS, month 64 (May 2018)",VA 20/20
same,VA (visual acuity),AMD patients [2]; [5],VA 20/200
same,VA (visual acuity),"AMD patients [2]; Patient #4, atorvastatin 80 mg/day, OD, month 3 (August 2018)",VA 20/200
same,VA (visual acuity),AMD patients [2]; [6],VA 20/20
same,VA (visual acuity),"AMD patients [2]; Patient #4, atorvastatin 80 mg/day, OS, month 3 (August 2018)",VA 20/20
same,VA (visual acuity),"AMD patients [2]; Patient #5, atorvastatin 80 mg/day from January 2014, OD, month 0 (January 2014), baseline",VA 20/25
same,VA (visual acuity),"AMD patients [2]; Patient #5, atorvastatin 80 mg/day from January 2014, OS, month 0 (January 2014), baseline",VA 20/25
same,Drusen resolution,"AMD patients [3]; Example 1: adult female, intermediate AMD, oral atorvastatin increasing to 80 mg per day over six months",eventual resolution of the drusen
same,"Drusen resolution (ophthalmic examination, fundus photography, OCT)","AMD patients [3]; Example 2: adult person, intermediate AMD, oral atorvastatin 10 to 80 mg per day, month 15",substantially complete resolution of the drusen
same,Average retinal thickness,"AMD patients [3]; left eye, August 2016 OCT",193 µm
same,Average total volume (retina),"AMD patients [3]; left eye, August 2016 OCT",8.2 mm^3
same,"Retinal thickness, maximum","AMD patients [3]; left eye, August 2016 OCT",291 µm
same,"Retinal thickness, minimum","AMD patients [3]; left eye, August 2016 OCT",191 µm
same,Average retinal thickness,"AMD patients [3]; left eye, February 2016 OCT",364 µm
same,Average total volume (retina),"AMD patients [3]; left eye, February 2016 OCT",8.45 mm^3
same,"Retinal thickness, maximum","AMD patients [3]; left eye, February 2016 OCT",457 µm
same,"Retinal thickness, minimum","AMD patients [3]; left eye, February 2016 OCT",217 µm
same,Average retinal thickness,"AMD patients [3]; right eye, August 2015 OCT",179 µm
same,Average total volume (retina),"AMD patients [3]; right eye, August 2015 OCT",8.49 mm^3
same,"Retinal thickness, maximum","AMD patients [3]; right eye, August 2015 OCT",461 µm
same,"Retinal thickness, minimum","AMD patients [3]; right eye, August 2015 OCT",176 µm
same,Average retinal thickness,"AMD patients [3]; right eye, December 2015 OCT",199 µm
same,Average total volume (retina),"AMD patients [3]; right eye, December 2015 OCT",8.23 mm^3
same,"Retinal thickness, maximum","AMD patients [3]; right eye, December 2015 OCT",332 µm
same,"Retinal thickness, minimum","AMD patients [3]; right eye, December 2015 OCT",170 µm
same,OCT retinal imaging finding,"AMD patients [3]; pravastatin 20 mg/day from April 2018, left eye",development of a PED
same,OCT retinal imaging finding,"AMD patients [3]; pravastatin 20 mg/day from April 2018, right eye",increased drusen accumulation with possible increase in drusen size
same,Drusen resolution,"AMD patients [3]; Patient #1, atorvastatin 20 to 80 mg/day, OU, month 59 (June 2018)",No indication of drusen resolution OU
same,Decrease in retina volume,"AMD patients [3]; Patient #2, atorvastatin 80 mg/day, OD, month 35 (December 2015 vs August 2015)",volume of 0.26 mm^3
same,Decrease in retina volume,"AMD patients [3]; Patient #2, atorvastatin 80 mg/day, OS, month 43 (August 2016 vs February 2016)",volume of 0.25 mm^3
same,SDD resolution,"AMD patients [3]; Patient #3, atorvastatin 80 mg/day, OU, month 19 (May 2018)",No indication of SDD resolution OU
same,Drusen resolution,"AMD patients [3]; Patient #4, atorvastatin 80 mg/day, OU, month 3 (August 2018)",No indication of drusen resolution OU
same,Drusen resolution,"AMD patients [3]; Patient #5, atorvastatin 80 mg/day (suspended January 2015-February 2016), then 20 mg/day, pravastatin 20 mg/day from April 2018, OU, month 51 (April 2018)",No indication of drusen resolution OU
same,Decrease in retina volume,AMD patients [3]; [7],volume of 0.09 mm^3
same,Decrease in retina volume,"AMD patients [3]; Patient #6, atorvastatin 80 mg/day, OS, month 9 (August 2018)",volume of 0.1 mm^3
same,Drusen resolution,"AMD patients [3]; Patient #6, atorvastatin 80 mg/day, OU, month 9 (August 2018)",Initial signs of drusen resolution OU
same,Drusen resolution,"AMD patients [3]; Patient #7, atorvastatin 10 to 20 mg/day, OU, month 27 (July 2018)",No indication of drusen resolution OU
same,Patients treated with disappearance of drusen deposits and improvement in vision,AMD patients [4],43%
